What was measured:
[1] = target: T1, Type-1 angiotensin II receptor (Homo sapiens, UniProt P30556); assay: Antagonist activity at type-1 angiotensin 2 receptor (unknown origin) by calcium mobilizing assay; assay type: functional
T1 sequence (P30556 whole entry): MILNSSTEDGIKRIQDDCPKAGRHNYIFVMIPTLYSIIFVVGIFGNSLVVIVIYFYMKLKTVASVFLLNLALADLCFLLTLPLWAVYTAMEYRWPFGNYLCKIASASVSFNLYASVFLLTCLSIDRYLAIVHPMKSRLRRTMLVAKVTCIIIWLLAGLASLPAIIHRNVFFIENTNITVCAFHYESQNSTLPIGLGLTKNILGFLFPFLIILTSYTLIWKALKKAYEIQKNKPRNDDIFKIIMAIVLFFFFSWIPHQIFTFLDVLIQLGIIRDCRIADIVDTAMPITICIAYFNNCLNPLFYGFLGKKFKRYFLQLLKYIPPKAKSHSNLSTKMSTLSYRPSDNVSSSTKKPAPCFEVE

[2] = target: T2, Peroxisome proliferator-activated receptor gamma (Homo sapiens, UniProt P37231); assay: Agonist activity at human PPARgamma
T2 sequence (P37231 whole entry): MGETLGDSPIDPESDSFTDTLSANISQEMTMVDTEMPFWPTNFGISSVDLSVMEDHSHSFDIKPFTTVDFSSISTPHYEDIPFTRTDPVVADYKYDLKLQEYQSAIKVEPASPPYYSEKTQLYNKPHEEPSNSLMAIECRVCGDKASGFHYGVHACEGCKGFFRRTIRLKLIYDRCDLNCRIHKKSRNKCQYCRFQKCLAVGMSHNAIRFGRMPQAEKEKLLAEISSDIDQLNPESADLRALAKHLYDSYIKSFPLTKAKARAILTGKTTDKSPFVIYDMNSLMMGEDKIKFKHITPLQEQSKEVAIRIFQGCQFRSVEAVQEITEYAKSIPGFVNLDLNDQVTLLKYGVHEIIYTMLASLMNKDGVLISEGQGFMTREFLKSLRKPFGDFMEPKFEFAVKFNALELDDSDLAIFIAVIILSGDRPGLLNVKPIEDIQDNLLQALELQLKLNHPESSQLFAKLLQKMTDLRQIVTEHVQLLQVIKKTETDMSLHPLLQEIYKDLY

[3] = target: T3, Peroxisome proliferator-activated receptor gamma (Homo sapiens) (UniProt P37231); assay: Agonist activity at human PPARgamma at 1 uM relative to pioglitazone
T3 sequence (whole entry): T2 sequence (P37231 whole entry)

[4] = Stability in mouse liver microsomes assessed as parent compound remaining after 30 mins; assay type: ADME, Microsome; settings: read-out: Stability
[5] = Stability in human liver microsomes assessed as parent compound remaining after 30 mins; assay type: ADME, Microsome; settings: read-out: Stability
[6] = Drug metabolism in mouse liver S9 fraction assessed as acylglucuronide formation; assay type: ADME, subcellular
[7] = Drug metabolism in rat liver S9 fraction assessed as acylglucuronide formation; assay type: ADME, subcellular
[8] = Drug metabolism in human liver S9 fraction assessed as acylglucuronide formation; assay type: ADME, subcellular
[9] = Drug level in mouse liver S9 fraction treated with BR101549; assay type: ADME, subcellular
[10] = Drug level in mouse liver S9 fraction treated with 2-(2-butyl-4-isopropyl-6-oxo-1-((2'-(5-oxo-4,5-dihydro-1,2,4-oxadiazol-3-yl)biphenyl-4-yl)methyl)-1,6-dihydropyrimidin-5-yl)acetic acid; assay type: ADME, subcellular
[11] = Drug level in rat liver S9 fraction treated with BR101549; assay type: ADME, subcellular
[12] = Drug level in rat liver S9 fraction treated with 2-(2-butyl-4-isopropyl-6-oxo-1-((2'-(5-oxo-4,5-dihydro-1,2,4-oxadiazol-3-yl)biphenyl-4-yl)methyl)-1,6-dihydropyrimidin-5-yl)acetic acid; assay type: ADME, subcellular
[13] = Drug level in human liver S9 fraction treated with BR101549; assay type: ADME, subcellular
[14] = Drug level in human liver S9 fraction treated with 2-(2-butyl-4-isopropyl-6-oxo-1-((2'-(5-oxo-4,5-dihydro-1,2,4-oxadiazol-3-yl)biphenyl-4-yl)methyl)-1,6-dihydropyrimidin-5-yl)acetic acid; assay type: ADME, subcellular
[15] = Stability in rat liver microsomes assessed as parent compound remaining after 30 mins; assay type: ADME, Microsome; settings: read-out: Stability
[16] = Stability in dog liver microsomes assessed as parent compound remaining after 30 mins; assay type: ADME, Canis lupus familiaris, Microsome; settings: read-out: Stability
[17] = target: T3, Peroxisome proliferator-activated receptor gamma (Homo sapiens); assay: Agonist activity at human PPARgamma at 1 uM relative to telmisartan
Mus musculus = assay: Antidiabetic activity in db/db mouse assessed as random blood glucose level at 20 mg/kg, po administered once daily for 13 days measured post last dose (reference value: 530 mg/dl); assay type: functional
[18] = Toxicity in db/db mouse assessed as body weight at 20 mg/kg, po administered once daily for 13 days (reference value: 33.5 g); assay type: organism-based; settings: in vivo, 312 h

| SMILES | EC50 [2] [µM] | max activation [3] [%] | remaining at 0.5 h [4] [%] | remaining at 0.5 h [5] [%] | other results |
| --- | --- | --- | --- | --- | --- |
| CCCCc1nc(C(C)C)c(CC(=S)N2CCCC2)c(=O)n1Cc1ccc(-c2ccccc2-c2noc(=O)[nH]2)cc1 | 3.1 | 66 | – | – | IC50 [1]: 0.0022 µM |
| CCCCc1nc(C(C)C)c(CC(=O)O)c(=O)n1Cc1ccc(-c2ccccc2-c2noc(=O)[nH]2)cc1 | 10.3 | 2 | 100 | 86.8 | Drug metabolism [6]: Metabolite_Detected; Drug metabolism [7]: Metabolite_Detected; Drug metabolism [8]: Metabolite_Detected |
| CCCCc1nc(C)c(CC(=O)OC2CCCCC2)c(=O)n1Cc1ccc(-c2ccccc2-c2noc(=O)[nH]2)cc1 | 1 | 98 | 10.7 | 3.9 | – |
| CCCCc1nc(C(C)C)c(CC(=O)OC2CC2)c(=O)n1Cc1ccc(-c2ccccc2-c2noc(=O)[nH]2)cc1 | 1.36 | 89 | 11.4 | 10.3 | – |
| CC#CCOC(=O)Cc1c(C(C)C)nc(CCCC)n(Cc2ccc(-c3ccccc3-c3noc(=O)[nH]3)cc2)c1=O | 1.06 | 103 | 16.4 | 13.7 | – |
| CCCCc1nc(C(C)C)c(CC(=O)O[C@@H]2O[C@H](C(=O)O)[C@@H](O)[C@H](O)[C@H]2O)c(=O)n1Cc1ccc(-c2ccccc2-c2noc(=O)[nH]2)cc1 | – | – | – | – | Drug metabolism [9]: Metabolite_Notdetected; Drug metabolism [10]: Metabolite_Detected; Drug metabolism [11]: Metabolite_Notdetected; Drug metabolism [12]: Metabolite_Detected; Drug metabolism [13]: Metabolite_Notdetected; Drug metabolism [14]: Metabolite_Detected |
| CCCCc1nc(C)c(CC(=O)OC2CC2)c(=O)n1Cc1ccc(-c2ccccc2-c2noc(=O)[nH]2)cc1 | 3.31 | 62 | 12.8 | 34.5 | – |
| CCCCc1nc(C(C)C)c(CC(=O)OCC(C)C)c(=O)n1Cc1ccc(-c2ccccc2-c2noc(=O)[nH]2)cc1 | 1.23 | 128 | 13.7 | 8.8 | – |
| CCCCc1nc(C(C)C)c(C(C)C(=O)OCC)c(=O)n1Cc1ccc(-c2ccccc2-c2noc(=O)[nH]2)cc1 (stereo unspecified) | – | – | 28 | 11 | remaining at 0.5 h [15]: 19.2%; remaining at 0.5 h [16]: 43.8%; fold change (FC) [17]: 1.3 |
| CCCCc1nc(C(C)C)c(CC(=O)OC2CCCCC2)c(=O)n1Cc1ccc(-c2ccccc2-c2noc(=O)[nH]2)cc1 | 0.73 | 88 | 14.6 | 13.3 | – |
| CCCCc1nc(C2CC2)c(CC(=O)OC)c(=O)n1Cc1ccc(-c2ccccc2-c2noc(=O)[nH]2)cc1 | 2.36 | 83 | 16.4 | 24.4 | – |
| CC#CCOC(=O)Cc1c(C)nc(CCCC)n(Cc2ccc(-c3ccccc3-c3noc(=O)[nH]3)cc2)c1=O | 2.53 | 99 | 18.3 | 32 | – |
| CCCCc1nc(C)c(CC(=O)OC)c(=O)n1Cc1ccc(-c2ccccc2-c2noc(=O)[nH]2)cc1 | 7.36 | 74 | 47.1 | 69.6 | – |
| CCCCc1nc(C)c(CC(=O)OCC(C)C)c(=O)n1Cc1ccc(-c2ccccc2-c2noc(=O)[nH]2)cc1 | 1.53 | 114 | 7.7 | 2.4 | – |
| CCc1ccc(CCOc2ccc(CC3SC(=O)NC3=O)cc2)nc1 (stereo unspecified) [PIOGLITAZONE] | – | – | – | – | Activity (Mus musculus): 213 mg/dL; Activity [18]: 32.3 g |
| CCCCc1nc(C)c(CC(=O)OCC2CCCCC2)c(=O)n1Cc1ccc(-c2ccccc2-c2noc(=O)[nH]2)cc1 | 1.32 | 90 | 8.9 | 11.5 | – |
| CCCCc1nc(C(C)C)c(CC(=O)OCCC)c(=O)n1Cc1ccc(-c2ccccc2-c2noc(=O)[nH]2)cc1 | 1.5 | 133 | 12.6 | 7.2 | – |
| CCCCc1nc(C(C)(C)C)c(CC(=O)OCC)c(=O)n1Cc1ccc(-c2ccccc2-c2noc(=O)[nH]2)cc1 | – | – | 14 | 8.2 | fold change (FC) [17]: < 1 |
| CCCCc1nc(C)c(CC(=O)OCC)c(=O)n1Cc1ccc(-c2ccccc2-c2noc(=O)[nH]2)cc1 | – | – | 12.9 | 46.6 | remaining at 0.5 h [15]: 14.3%; remaining at 0.5 h [16]: 50.9%; fold change (FC) [17]: 0.93; fold change (FC) ([17]; tested as the 2H-labelled form): 0.82 |
| CCCCc1nc(C(C)C)c(CC(=O)OC(CC)CC)c(=O)n1Cc1ccc(-c2ccccc2-c2noc(=O)[nH]2)cc1 | – | – | 14.6 | 7.7 | – |
| CCCCOC(=O)Cc1c(C(C)C)nc(CCCC)n(Cc2ccc(-c3ccccc3-c3noc(=O)[nH]3)cc2)c1=O | 1 | 73 | 21.6 | 7.1 | – |
| CCCCCOC(=O)Cc1c(C(C)C)nc(CCCC)n(Cc2ccc(-c3ccccc3-c3noc(=O)[nH]3)cc2)c1=O | 1.09 | 54 | 19.7 | 10.6 | – |
| CCCCc1nc(C(C)C)c(CC(=O)OC)c(=O)n1Cc1ccc(-c2ccccc2-c2noc(=O)[nH]2)cc1 | 2.62 | 96 | 9.4 | 10.5 | – |
| CCCCc1nc(C(C)C)c(CC(=O)OCC(F)(F)F)c(=O)n1Cc1ccc(-c2ccccc2-c2noc(=O)[nH]2)cc1 | 2.78 | 65 | – | – | – |
| CCCCc1nc(C)c(CC(=O)OC(C)C)c(=O)n1Cc1ccc(-c2ccccc2-c2noc(=O)[nH]2)cc1 | 1.66 | 114 | 4 | 17.5 | – |
| CCCCc1nc(C2CC2)c(CC(=O)OC(C)C)c(=O)n1Cc1ccc(-c2ccccc2-c2noc(=O)[nH]2)cc1 | 2.72 | 87 | 14 | 9.9 | – |
| CCCCOC(=O)Cc1c(C)nc(CCCC)n(Cc2ccc(-c3ccccc3-c3noc(=O)[nH]3)cc2)c1=O | 2.25 | 116 | 10.2 | 2.8 | – |
| CCCCc1nc(C)c(CC(=O)OCC2CC2)c(=O)n1Cc1ccc(-c2ccccc2-c2noc(=O)[nH]2)cc1 | 1.81 | 101 | 13 | 20 | – |
| [2H]C([2H])(C(=O)OCC)c1c(C)nc(CCCC)n(Cc2ccc(-c3ccccc3-c3noc(=O)[nH]3)cc2)c1=O | – | – | 78.4 | 46.5 | remaining at 0.5 h [15]: 87.3%; remaining at 0.5 h [16]: 86.8% |
